Assay results reported in US11186598B2, “Radioactive phospholipid metal chelates for cancer imaging and therapy” (Wisconsin Alumni Research Foundation, priority 2016, dated 2021).

Test system: flank U87 tumors
Test: MRI comparison of Gd-DO3A-404 and DOTAREM in mice with flank U87 tumors (Example 5)
Format: in vivo, mouse
Conditions: as compared to Gd-DO3A-404
From the text: To verify that uptake and retention was due to targeting of the “404” moiety, we directly compared the uptake of Gd-DO3A-404 with that of DOTA-chelated Gd^3+ (DOTAREM®) in an identical tumor model (mice with flank U87 tumors) and imaging scenario, using the same number of moles of each.
We the quantified the tumor to muscle ratio and compare it to baseline scans.

CNC[C@H](O)[C@@H](O)[C@H](O)[C@H](O)CO.O=C([O-])CN1CCN(CC(=O)[O-])CCN(CC(=O)O)CCN(CC(=O)[O-])CC1.[Gd+3] [DOTAREM®]
tumor to muscle ratio compared to baseline scans (uptake): less striking, and significant only at a couple of early time points
